“Also recorded” adds a separate entry of the source.
What was measured:
AMD1 = biological target: T1, AMD1 (Homo sapiens, UniProt P17707); experiment: gel-based RP-ABPP of transfected HEK293T cells; assay type: cell-based; conditions: for blocking of probe labeling by excess non-clickable probe: transfected HEK293T cells
T1 construct: Full-length genes encoding three probe 1- and one probe 2-targeted proteins were amplified from a cDNA library; expressed in transfected cells; host or cells: HEK293T
T1 sequence (P17707 68-334 limits assumed): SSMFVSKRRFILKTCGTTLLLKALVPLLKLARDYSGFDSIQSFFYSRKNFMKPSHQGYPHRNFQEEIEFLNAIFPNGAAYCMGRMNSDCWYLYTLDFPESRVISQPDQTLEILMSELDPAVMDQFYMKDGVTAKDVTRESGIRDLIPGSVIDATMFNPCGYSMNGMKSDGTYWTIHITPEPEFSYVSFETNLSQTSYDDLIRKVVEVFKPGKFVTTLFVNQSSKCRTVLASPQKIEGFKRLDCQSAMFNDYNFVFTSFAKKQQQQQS
T1 sequence (P17707 1-67 limits assumed): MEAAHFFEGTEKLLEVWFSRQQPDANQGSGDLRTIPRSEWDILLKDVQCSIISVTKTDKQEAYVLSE

FTO = biological target: T2, FTO (Homo sapiens, UniProt Q9C0B1); experiment: gel-based RP-ABPP of transfected HEK293T cells; assay type: cell-based; conditions: transfected HEK293T cells
T2 construct: Full-length genes encoding three probe 1- and one probe 2-targeted proteins were amplified from a cDNA library; expressed in transfected cells; host or cells: HEK293T
Procedure: (§1) Soluble proteomes from treated cells were diluted to 1 mg/mL. To each sample (50 μL), a freshly prepared “click” or CuAAC reagent mixture (6 μL) containing 0.1 mM tris(benzyltriazolylmethyl)amine (TBTA) (3 μL/sample, 1.7 mM in 4:1 DMSO:t-BuOH), 1 mM CuSO4 (1 μL/sample, 50 mM in H2O), 25 μM azide-rhodamine (1 μL/sample, 1.25 mM in DMSO), and freshly prepared 1 mM tris(2-carboxyethyl)phosphine (TCEP) (1 μL/sample, 50 mM in PBS or H2O) was added to conjugate the fluorophore to probe-labelled proteins. TBTA was purchased from TCI and azide-rhodamine was synthesized as previously described^64. Upon addition of the click mixture, each reaction was immediately mixed by vortexing and then allowed to react at ambient temperature for 1 hour before quenching the reactions with SDS loading buffer (4× stock, 17 μL). Proteins (˜25 μg total protein loaded per gel lane) were resolved by SDS-PAGE (10% acrylamide) and visualized by in-gel fluorescence scanning on a Hitachi FMBIO-II or BioRad ChemiDoc MP flatbed fluorescence scanner.
(§2) Full-length genes encoding three probe 1- and one probe 2-targeted proteins were amplified from a cDNA library derived from the same low-passage HEK293T cells used for proteomic profiling. The library was generated using Ribozol RNA extraction (Amresco) and iScript reverse transcription (Bio-rad) supermix reagents. The gene products were cloned into mammalian expression vectors containing N- or C-terminal FLAG affinity tags. The gene for S-adenosyl-L-methionine decarboxylase (AMD1 or AdoMetDC) was cloned into pFLAG-CMV-sport6 (N-terminal tag) at NotI and SalI restriction sites. AMD1, Secernin-3 (SCRN3) and fat mass- and obesity-associated Fe(II)- and 20G-dependent dioxygenase (FTO) were cloned into pRK5 (C-terminal tag) at SalI and NotI restriction sites. Kelch-like ECH-associated protein-1 (Keapl) (N-terminal tag), and empty plasmids of pRK5 were gifts. Full sequences of the genes were confirmed. The proteins expressed via transient transfection in HEK293T cells contain an additional 15 amino acids appended to their N-terminal methionine residue or C-terminus (MDYKD4KLKACGR (SEQ ID NO: 43) and A3G4DYKD4K (SEQ ID NO: 44), respectively). The DYKD4K (SEQ ID NO: 42) appendage in each contains the classic FLAG epitope that permits detection by western blotting or purification by affinity chromatography. Mutants of SCRN3 were generated using QuikChange site-directed mutagenesis with primers containing the desired mutations and their respective compliments. The gene for the deletion mutant of SCRN3 with the sequence MetlCys6-SCRN3 instead of Met1 Glu2Pro3Phe4Ser5Cys6-SCRN3 (SEQ ID NO: 45) was amplified from the wild-type C-terminal FLAG-tagged construct and cloned into the same vector.
(§3) HEK293T cells were grown to ˜40% confluence under standard growth conditions passaged in the appropriate media before adding the appropriate expression vector (control cells (‘mock’) received an equal amount of the appropriate empty vector) and polyethyleneimine (PEI) ‘MAX’ (MW 40,000, Polysciences Inc.) as a transfection reagent under standard transfection conditions (3:1 vector/PEI (w/w) ratio). Cells were incubated for ˜48 h before labelling in situ. Proteomes were processed for gel- and MS-based experiments as described above and in Example 2.
(§4) After scanning fluorescence, that same gel was transferred to nitrocellulose membrane in Towbin buffer, the membrane was blocked for ˜1 hour at ambient temperature with 5% nonfat dry milk (w/v) in Tris-buffered saline with Tween 20 (TBST) and incubated with primary antibodies in the same solution overnight at 4° C. The antibodies included anti-FLAG (1:2500, F1804, Sigma), anti-AdoMetDC (1:500, sc-160951, Santa Cruz Biotechnology) and anti-His6 (1:1000, ab18184, Abcam). The blots were washed (3×5 min, TBST), incubated with secondary antibodies (1:10,000, IRDye 800CW, LICOR) in milk for 1 hour at ambient temperature, washed again (3×5 min, TBST), and visualized on a LICOR Odyssey Scanner.

KEAP1 = biological target: T3, KEAP1 (Homo sapiens, UniProt Q14145); experiment: gel-based RP-ABPP of transfected HEK293T cells; assay type: cell-based; conditions: transfected HEK293T cells
T3 construct: Full-length genes encoding three probe 1- and one probe 2-targeted proteins were amplified from a cDNA library; expressed in transfected cells; host or cells: HEK293T
Procedure: as §1, §2, §3, §4

SCRN3 = biological target: T4, SCRN3 (Homo sapiens, UniProt Q0VDG4); experiment: gel-based RP-ABPP of transfected HEK293T cells; assay type: cell-based; conditions: transfected HEK293T cells
T4 construct: Full-length genes encoding three probe 1- and one probe 2-targeted proteins were amplified from a cDNA library; expressed in transfected cells; host or cells: HEK293T
T4 sequence (Q0VDG4 6-424): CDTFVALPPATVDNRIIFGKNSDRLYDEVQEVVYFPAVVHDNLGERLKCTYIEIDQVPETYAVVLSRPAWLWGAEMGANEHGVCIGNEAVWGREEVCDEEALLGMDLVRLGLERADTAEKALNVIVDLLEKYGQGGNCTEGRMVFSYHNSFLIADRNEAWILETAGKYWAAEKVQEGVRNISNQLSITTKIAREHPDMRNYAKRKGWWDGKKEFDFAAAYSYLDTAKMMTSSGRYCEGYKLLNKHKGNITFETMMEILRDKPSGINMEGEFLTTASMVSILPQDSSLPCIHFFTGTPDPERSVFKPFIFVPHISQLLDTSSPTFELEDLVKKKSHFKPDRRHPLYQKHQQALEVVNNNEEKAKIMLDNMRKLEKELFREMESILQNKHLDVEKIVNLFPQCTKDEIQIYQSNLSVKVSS
Procedure: as §1, §2, §3, §4

[1] = biological target: T5, AMD1 S-adenosylmethionine decarboxylase (P17707) (Homo sapiens, UniProt P17707); experiment: SILAC RP-ABPP; assay type: cell-based; conditions: SILAC competition, drug in place of probe 3
T5 construct: shared by both the endogenous and recombinant forms of these proteins; endogenous in cells; host or cells: HEK293T and MDA-MB-231
T5 sequence (P17707 68-334 limits assumed): T1 sequence (P17707 68-334 limits assumed)
T5 sequence (P17707 1-67 limits assumed): T1 sequence (P17707 1-67 limits assumed)
Procedure: (§5) Modifications to this protocol included using isotopically ‘light’ and ‘heavy’ SILAC cells that were also grown to near complete confluence prior to treatment. Isotopically light cells were treated with the non-clickable hydrazine probe (at the same concentration as the probe in ‘enrichment’ experiments) or the probe in the presence of 10-fold excess non-clickable hydrazine probe as a competitor (in ‘competition’ experiments). Isotopically heavy cells were treated with the probe for both types of experiments. These treatments were performed in non-SILAC media. Following treatments, cells were washed with cold PBS to remove the probe-containing media, harvested by scraping, collected by centrifugation (1,400 g, 3 min, 4° C.), washed again by resuspension in cold PBS and frozen as pellets at −80° C. until use.
(§6) The fractionated equimolar mixture of heavy and light soluble proteomes (1-1.5 mg) was diluted to 1 mL in PBS. Click reactions were scaled accordingly (except for biotin-azide) to maintain final concentrations of 0.1 mM TBTA, 1 mM CuSO4, 100 μM biotin-azide (10 mM in DMSO) and 1 mM TCEP. The mixture was vortexed and placed on a rotator at ambient temperature for 1 hour. Sequential addition of and mixture with pre-chilled methanol (MeOH, 2 mL), chloroform (CHCl3, 0.5 mL) and PBS (1 mL) on ice quenched the reaction. The precipitated proteome was centrifuged (5,000 g, 10 min, 4° C.) to fractionate the protein interphase from the organic and aqueous solvent layers. The protein pellet was washed with cold 1:1 MeOH:CHCl3 (3×1 mL), mildly sonicated in cold 4:1 MeOH:CHCl3 (2.5 mL) and pelleted once more by centrifugation (5,000 g, 10 min, 4° C.) to ensure click reagents were efficiently removed.
(§7) Heavy and light parent ion chromatograms associated with successfully identified peptides were extracted and compared using CIMAGE software as previously described^69. At least one ion of a co-eluting heavy-light pair must be accurately identified from a fragmentation event that occurred within the retention time window (±10 min) of parent ion elution. To ensure that the correct pair of peaks is quantified, chromatograms are extracted within a 10 ppm error tolerance of the predicted m/z, the signal-to-noise ratio must be >2.5 and the ‘co-elution correlation score’ and ‘envelope correlation score’ must have R^2 values ≥0.8. In addition, peptides detected as ‘singletons,’ where only the heavy ion of a peptide pair was identified, but for which passed all other filtering parameters, are given a default assigned ratio of ‘20,’ which is defined as any measured ratio that is ≥20.
(§8) To further eliminate false positives and any stochastic variability in the data, protein ratios were then determined by the median peptide ratio derived from three or more unique quantified peptides. Protein ratios that complied with these criteria from a single experiment were then averaged with ratios acquired from ≥3 replicates to provide final values for each type of experiment in both cell lines with both probes. […] Probe targets in HEK293T and MDA-MB-231 cells represent data combined from ≥3 independent biological replicates with each cell type performed with several independent batches of synthesized probes over a period of almost two years.
(§9) Two types of experiments were performed—1) direct enrichment of probe 1-labelled proteins from heavy cells in comparison to light control cells treated with the non-clickable hydrazine (3) at the same concentration as 1 (3 mM for 0.5 h); and 2) competition experiments where both heavy and light cells were treated probe 1, but light cells were also treated with 10× competitor 3 (FIG. 3A)—in two different human cell lines (HEK293T cells and the human breast cancer cell line MDA-MB-231).

LGMN Legumain (Q99538) = biological target: T6, LGMN Legumain (Q99538) (Homo sapiens, UniProt Q99538); experiment: SILAC RP-ABPP; assay type: cell-based; conditions: SILAC competition, drug in place of probe 3
T6 construct: shared by both the endogenous and recombinant forms of these proteins; endogenous in cells; host or cells: HEK293T and MDA-MB-231
T6 sequence (Q99538 18-323): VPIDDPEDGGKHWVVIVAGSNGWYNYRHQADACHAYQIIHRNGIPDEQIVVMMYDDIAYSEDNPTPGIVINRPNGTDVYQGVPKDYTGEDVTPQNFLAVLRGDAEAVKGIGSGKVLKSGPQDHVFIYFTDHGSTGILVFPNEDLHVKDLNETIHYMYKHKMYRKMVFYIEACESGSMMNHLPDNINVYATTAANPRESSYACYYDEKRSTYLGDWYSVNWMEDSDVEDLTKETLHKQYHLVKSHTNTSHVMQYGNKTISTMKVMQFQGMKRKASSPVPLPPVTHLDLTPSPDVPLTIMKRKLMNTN
Procedure: as §5, §6, §7, §8, §9

[2] = biological target: T7, SCRN2 Secernin-2 (Q96FV2) (Homo sapiens, UniProt Q96FV2); experiment: SILAC RP-ABPP; assay type: cell-based; conditions: SILAC competition, drug in place of probe 3
T7 construct: shared by both the endogenous and recombinant forms of these proteins; endogenous in cells; host or cells: HEK293T and MDA-MB-231
Procedure: as §5, §6, §7, §8, §9

[3] = biological target: T8, SCRN3 Secernin-3 (Q0VDG4) (Homo sapiens, UniProt Q0VDG4); experiment: SILAC RP-ABPP; assay type: cell-based; conditions: SILAC competition, drug in place of probe 3
T8 construct: shared by both the endogenous and recombinant forms of these proteins; endogenous in cells; host or cells: HEK293T and MDA-MB-231
T8 sequence (Q0VDG4 6-424): T4 sequence (Q0VDG4 6-424)
Procedure: as §5, §6, §7, §8, §9

HEK293T cells = experiment: gel-based in situ probe labelling (rhodamine-azide, in-gel fluorescence); assay type: cell-based, human; conditions: probe 1 3 mM, 30 min; dihydrochloride
Procedure: For gel-based experiments, cells were plated and grown to near complete confluence at the time of treatment. Cells were washed with cold phosphate buffered saline (PBS, pH 7.4) and replenished with serum-free DMEM (˜15% of normal passage volume, e.g. a 10 cm plate normally passaged with 10 mL media received 1.5 mL) supplemented with 10 mM Na-HEPES buffer (pH 7.5). Unless otherwise indicated, cells were incubated with probes (3 mM and 1 mM for probes 1 and 2, respectively) in the absence or presence of 10-fold excess non-clickable competitor probes (30 mM and 10 mM for 3 and 4, respectively) for 0.5 hour at 37° C. When applicable, probe and competitor were premixed before co-administering to the cells.
The cells were lysed, and the cell proteomes were conjugated to a rhodamine-azide (Rh—N3) reporter tag.
as §1

CSCC[C@H](N)C(=O)O [L-methionine]
increase of probe 1 labeling of recombinant AMD1 (AMD1; L-methionine lowered from 200 μM to 10 μM, AMD1 expression negligibly changed): seven-fold

Cl.NNc1ccccc1 [probe 4, phenyl hydrazine hydrochloride, reference compound]
blocking of probe labeling by excess non-clickable probe (AMD1): blocked
blocking of probe labeling by excess non-clickable probe (FTO): blocked
blocking of probe labeling by excess non-clickable probe (KEAP1): blocked
blocking of probe labeling by excess non-clickable probe (SCRN3): blocked

NNCCc1ccccc1 [phenelzine, reference compound]
competition of probe 1 labelling by competitor drug [1]: Near complete loss of probe labelling
competition of probe 1 labelling by competitor drug (LGMN Legumain (Q99538)): Near complete loss of probe labelling
competition of probe 1 labelling by competitor drug [2]: Near complete loss of probe labelling
competition of probe 1 labelling by competitor drug [3]: Near complete loss of probe labelling

CCCNN.Cl.Cl [probe 3, Propyl hydrazine dihydrochloride, reference compound]
competition of probe 1 labelling by co-administered non-clickable probe (HEK293T cells): suppressed by increasing concentrations; also recorded: blocks the labeling of proteins by probe 1
blocking of probe labeling by excess non-clickable probe (AMD1): blocked
blocking of probe labeling by excess non-clickable probe (FTO): blocked
blocking of probe labeling by excess non-clickable probe (KEAP1): blocked
blocking of probe labeling by excess non-clickable probe (SCRN3): blocked

NNC(=O)c1ccncc1 [isoniazid, reference compound]
competition of probe 1 labelling by competitor drug [1]: almost no competition
competition of probe 1 labelling by competitor drug (LGMN Legumain (Q99538)): almost no competition
competition of probe 1 labelling by competitor drug [2]: almost no competition
competition of probe 1 labelling by competitor drug [3]: almost no competition
